The text below walks through data of ChEMBL document CHEMBL1129742, “Development of a high specific activity sulfur-35-labeled sulfonamide radioligand that allowed the identification of a new growth hormone secretagogue receptor” (J Med Chem, 1996).

pEC50, pKd: −log10 of the molar value. Non-standard residues stand in square brackets, D forms with d. Residues, ends and D or L forms follow the SMILES beside them.

One test is filed under the species Rattus norvegicus. Briefly: Effective Concentration for GH secretion from rat pituitary cell was determined. Conditions: Pituitary gland cell. The format is functional.
The nature of test [1]: Dissociation constant was evaluated which is similar to Ki (inhibitory constant).

The term pEC50 denotes −log10 of the EC50, conventionally taken in molar units. The low end stands for a high EC50, the high end for a low EC50. The term pKd denotes the negative decadic logarithm of the Kd, by convention in mol/L.

Consider `CC(C)(N)CC(=O)N[C@H]1CCc2ccccc2N(Cc2ccc(-c3ccccc3-c3nn[nH]n3)cc2)C1=O`, for which the negative-log EC50 (pEC50) in the test filed under Rattus norvegicus was under 5.30.

For `CC(C)(N)C(=O)N[C@H](COCc1ccccc1)C(=O)N1CCC2(CC1)CN(S(C)(=O)=O)c1ccccc12` [IBUTAMOREN], in test [1], the pKd is 9.79. The negative-log EC50 (pEC50) in the test filed under Rattus norvegicus was […].

Regarding `C[C@H](NC(=O)[C@@H](Cc1c[nH]c2ccccc12)NC(=O)[C@@H](N)Cc1c[nH]cn1)C(=O)N[C@@H](Cc1c[nH]c2ccccc12)C(=O)N[C@H](Cc1ccccc1)C(=O)N[C@@H](CCCCN)C(N)=O` (H-H[dW]AW[dF]K-NH2), the negative logarithm of the EC50 (pEC50) in the test listed under Rattus norvegicus was 8.00.
